Among the data in ChEMBL document CHEMBL3244039, “Antiviral activity of some beta-diketones. 2. Aryloxy alkyl diketones. In vitro activity against both RNA and DNA viruses” (1977) are MIC and Activity values, retold here.

The subject of test [1] is Human alphaherpesvirus 2. Description: Antiviral activity against Herpes simplex virus 2 assessed as inhibition of virus-induced cytopathic effect after 72 hrs by two-fold dilution method. It is filed as functional. Particulars: Human alphaherpesvirus 2, 72 h.
The subject of test [2] is rhinovirus B14. Description: Antiviral activity against Human rhinovirus 14 assessed as inhibition of virus-induced cytopathic effect at 37 degC after 72 hrs by two-fold dilution method. The test is classed as functional. Particulars: Rhinovirus B. (Protection from cytopathic effect is a common read-out in antiviral testing.)
Test [3] is described as follows: Antiviral activity against Human rhinovirus 17 assessed as inhibition of virus-induced cytopathic effect at 37 degC after 72 hrs by two-fold dilution method. It is filed as functional, Human rhinovirus B17. Particulars: Rhinovirus B.
Test [4] deals with unidentified influenza virus. Put plainly: Antiviral activity against Parainfluenza virus assessed as inhibition of virus-induced cytopathic effect at 37 degC after 72 hrs by two-fold dilution method. The test is classed as functional.
The test system of test [5] is Respiratory syncytial virus. Description: Antiviral activity against Respiratory syncytial virus assessed as inhibition of virus-induced cytopathic effect at 37 degC after 72 hrs by two-fold dilution method. The test is classed as functional. The settings on record: human respiratory syncytial virus.
Test [6] has as its system Human alphaherpesvirus 1. Put plainly: Antiviral activity against Herpes simplex virus 1 assessed as inhibition of virus-induced cytopathic effect at 37 degC after 72 hrs by two-fold dilution method. It is filed as functional. The settings on record: Human alphaherpesvirus 1, 72 h.
In test [7] the test system is Human alphaherpesvirus 1. Put plainly: Antiviral activity against Herpes simplex virus 1 Sheely assessed as inhibition of virus-induced cytopathic effect at 37 degC after 72 hrs by two-fold dilution method. The test is classed as functional. The settings on record: Human alphaherpesvirus 1, Sheely.
In test [8] the test system is Human alphaherpesvirus 2. Put plainly: Antiviral activity against Herpes simplex virus 2 Curtis assessed as inhibition of virus-induced cytopathic effect at 37 degC after 72 hrs by two-fold dilution method. It is filed as functional. Particulars: Human alphaherpesvirus 2, Curtis.
Test [9] relates to rhinovirus A2. Description: Antiviral activity against Human rhinovirus 2 assessed as inhibition of virus-induced cytopathic effect at 37 degC after 72 hrs by two-fold dilution method. The test is classed as functional. Particulars: Rhinovirus A.
The subject of test [10] is Influenza A virus. Description: Antiviral activity against Influenza A2 virus Jap 170 infected in ferret trachea assessed as reduction in viral yield at 200 ug/ml after 3 days followed by compound-washout measured after 24 hrs by chick embryo-based hemagglutination titration method relative to control v. The test is classed as functional. Details: scale not given: the % may be the effect or the level left.

The test system of test [11] is Influenza A virus. Put plainly: Antiviral activity against Influenza A2 virus Jap 170 infected in ferret trachea assessed as reduction in viral yield at 400 ug/ml after 3 days followed by compound-washout measured after 24 hrs by chick embryo-based hemagglutination titration method relative to control. It is filed as functional. On the set-up: scale not given: the % may be the effect or the level left.

Test [12] concerns Equine rhinovirus. Description: Antiviral activity against Equine rhinovirus assessed as inhibition of virus-induced cytopathic effect after 48 hrs by two-fold dilution method.
Test [13] deals with Equine rhinovirus. Description: Antiviral activity against Equine rhinovirus infected in rhesus monkey trachea assessed as reduction in viral yield at 200 ug/ml after 3 days followed by compound-washout measured after 24 hrs by human CATR cell-based titration method relative to control. Details: scale not given: the % may be the effect or the level left.
Test [14] concerns Equine rhinovirus. Description: Antiviral activity against Equine rhinovirus infected in rhesus monkey trachea assessed as reduction in viral yield at 400 ug/ml after 3 days followed by compound-washout measured after 24 hrs by human CATR cell-based titration method relative to control. Details: scale not given: the % may be the effect or the level left.
For test [15], the system named is Equine rhinovirus. Description: Antiviral activity against Equine rhinovirus infected in rhesus monkey trachea assessed as reduction in viral yield at 100 ug/ml after 3 days followed by compound-washout measured after 24 hrs by human CATR cell-based titration method relative to control v. On the set-up: scale not given: the % may be the effect or the level left.

Converted amounts (≈) assume the structure as drawn.

Take `CCC(=O)C(CCCCCCOc1ccc(OC)cc1Cl)C(=O)CC` [ARILDONE]: the MIC was determined as 6 µg/mL (≈ 16.3 µM) in [1]; 1.5 µg/mL (≈ 4.07 µM) in test [2]; 3 µg/mL (≈ 8.13 µM) in [3]; 1.5 µg/mL (≈ 4.07 µM) in [4]; 3 µg/mL (≈ 8.13 µM) in test [5]; 6 µg/mL (≈ 16.3 µM) in test [6]. Moreover, the MIC is 6 µg/mL (≈ 16.3 µM) in test [7], 6 µg/mL (≈ 16.3 µM) in test [8], 0.7 µg/mL (≈ 1.9 µM) in test [9] and 1.5 µg/mL (≈ 4.07 µM) in [12]. The Activity came to 90% in test [10]; 99.9% in [11]; 98% in [13]; 99.5% in test [14]; 70% in test [15].
